From US9452986B2, “6-heteroaryloxy- or 6-aryloxy-quinoline-2-carboxamides and method of use” (AbbVie Inc., priority 2014, dated 2016) come the findings set out here.

The structures appear in SMILES notation.

In one test the target is recombinant human Nav1.7 (Homo sapiens (Human), UniProt Q15858). Description: FRET-based membrane potential assay, recombinant human sodium channel Nav1.7. The format is cell-based. The note with it: HEK293 cells stably expressing recombinant human Nav1.7; veratridine + scorpion venom depolarization; read-out: FRET-Membrane Potential Nav1.7 IC50. In outline: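 Channel activation used veratridine at its EC80, set by a dilution curve each experiment, together with Leiurus scorpion venom, added 3 min after compound. Membrane-potential ratio signals from FLIPR Tetra in HEPES-buffered HBSS were fitted to a four-parameter Hill equation for percent inhibition and IC50.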
Chain of recombinant human Nav1.7 (Q15858 whole entry): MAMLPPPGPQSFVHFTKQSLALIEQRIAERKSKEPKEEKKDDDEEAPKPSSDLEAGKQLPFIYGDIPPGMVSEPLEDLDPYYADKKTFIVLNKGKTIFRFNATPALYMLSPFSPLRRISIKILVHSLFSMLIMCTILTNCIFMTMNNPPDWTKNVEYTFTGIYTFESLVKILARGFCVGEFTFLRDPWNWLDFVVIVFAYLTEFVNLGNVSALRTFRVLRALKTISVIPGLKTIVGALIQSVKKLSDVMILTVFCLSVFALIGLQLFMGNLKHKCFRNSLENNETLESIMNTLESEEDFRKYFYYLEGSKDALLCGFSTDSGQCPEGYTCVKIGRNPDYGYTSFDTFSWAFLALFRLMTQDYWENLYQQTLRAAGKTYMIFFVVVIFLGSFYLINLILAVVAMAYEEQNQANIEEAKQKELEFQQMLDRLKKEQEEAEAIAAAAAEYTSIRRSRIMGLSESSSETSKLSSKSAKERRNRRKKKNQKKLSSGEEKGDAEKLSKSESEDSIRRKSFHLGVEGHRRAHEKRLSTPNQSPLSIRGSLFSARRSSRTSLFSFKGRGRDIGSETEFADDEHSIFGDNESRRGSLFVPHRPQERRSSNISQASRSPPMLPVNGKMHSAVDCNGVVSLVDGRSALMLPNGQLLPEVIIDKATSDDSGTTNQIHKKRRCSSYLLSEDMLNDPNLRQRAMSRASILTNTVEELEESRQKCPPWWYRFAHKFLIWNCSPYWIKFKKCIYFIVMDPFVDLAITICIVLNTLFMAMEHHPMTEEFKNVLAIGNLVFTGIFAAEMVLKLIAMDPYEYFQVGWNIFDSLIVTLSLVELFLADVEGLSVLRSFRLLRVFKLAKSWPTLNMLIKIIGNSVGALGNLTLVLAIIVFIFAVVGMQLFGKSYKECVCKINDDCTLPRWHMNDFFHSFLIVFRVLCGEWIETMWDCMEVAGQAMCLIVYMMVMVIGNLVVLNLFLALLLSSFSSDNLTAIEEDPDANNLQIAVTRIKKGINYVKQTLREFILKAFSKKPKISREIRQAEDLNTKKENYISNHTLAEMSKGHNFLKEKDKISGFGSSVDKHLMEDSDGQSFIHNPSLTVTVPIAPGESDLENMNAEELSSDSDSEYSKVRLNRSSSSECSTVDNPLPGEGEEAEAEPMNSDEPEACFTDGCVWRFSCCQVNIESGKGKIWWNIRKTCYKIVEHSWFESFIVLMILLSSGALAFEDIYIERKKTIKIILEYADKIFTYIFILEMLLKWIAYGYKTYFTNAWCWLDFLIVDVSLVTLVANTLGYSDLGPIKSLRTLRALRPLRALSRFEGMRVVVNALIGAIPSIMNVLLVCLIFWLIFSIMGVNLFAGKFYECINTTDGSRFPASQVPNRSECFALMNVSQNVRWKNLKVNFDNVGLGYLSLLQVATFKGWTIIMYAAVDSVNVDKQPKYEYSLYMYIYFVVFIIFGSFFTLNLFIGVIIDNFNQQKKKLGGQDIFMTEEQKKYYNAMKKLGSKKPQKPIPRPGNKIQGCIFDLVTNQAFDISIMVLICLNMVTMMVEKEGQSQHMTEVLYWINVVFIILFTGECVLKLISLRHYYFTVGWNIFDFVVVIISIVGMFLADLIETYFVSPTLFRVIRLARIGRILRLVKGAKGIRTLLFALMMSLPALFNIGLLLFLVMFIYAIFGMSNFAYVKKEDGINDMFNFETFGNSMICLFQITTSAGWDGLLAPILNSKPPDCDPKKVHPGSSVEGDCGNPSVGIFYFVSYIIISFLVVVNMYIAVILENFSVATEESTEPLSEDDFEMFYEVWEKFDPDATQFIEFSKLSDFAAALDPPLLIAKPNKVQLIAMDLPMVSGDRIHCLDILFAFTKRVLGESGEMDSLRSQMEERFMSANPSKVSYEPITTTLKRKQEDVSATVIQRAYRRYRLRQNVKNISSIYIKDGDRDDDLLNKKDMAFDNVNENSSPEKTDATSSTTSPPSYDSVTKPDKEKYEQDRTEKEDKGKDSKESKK
`CC(C)(O)c1ccc(Oc2ccc3nc(C(=O)N4CCNCC4)ccc3c2)cc1` [Example 209, {6-[4-(2-hydroxypropan-2-yl)phenoxy]quinolin-2-yl}(piperazin-1-yl)methanone]: the concentration for half-maximal inhibition (IC50) amounted to 8.86 µM.

On to `NC(=O)c1ccc2cc(Oc3ccc(C(F)(F)F)cn3)ccc2n1` [Example 210, 6-{[5-(trifluoromethyl)pyridin-2-yl]oxy}quinoline-2-carboxamide], for which the half-inhibitory concentration (IC50) is over 20 µM. The same measure, in the same setting: with `CN1CCN(C(=O)c2ccc3cc(Oc4ccc(C(F)(F)F)cn4)ccc3n2)CC1` [Example 211, (4-methylpiperazin-1-yl)(6-{[5-(trifluoromethyl)pyridin-2-yl]oxy}quinolin-2-yl)methanone] the figure was 1.93 µM; with `O=C(c1ccc2cc(Oc3ccc(C(F)(F)F)cn3)ccc2n1)N1CCC(=O)N2C[C@@H](O)C[C@H]2C1` [Example 212, (8S,9aS)-8-hydroxy-2-[(6-{[5-(trifluoromethyl)pyridin-2-yl]oxy}quinolin-2-yl)carbonyl]octahydro-5H-pyrrolo[1,2-a][1,4]diazepin-5-one], over 20 µM.

Regarding `O=C(c1ccc2cc(Oc3ccc(C(F)(F)F)cn3)ccc2n1)N1CC[C@@H]2CN[C@@H]2C1` [Example 213, (1S,6R)-3,8-diazabicyclo[4.2.0]oct-3-yl(6-{[5-(trifluoromethyl)pyridin-2-yl]oxy}quinolin-2-yl)methanone], the IC50 came out at 9.4 µM. For `CS(=O)(=O)c1ccc(Oc2ccc3nc(C(=O)N4CCNCC4)ccc3c2)cc1` [Example 214, {6-[4-(methylsulfonyl)phenoxy]quinolin-2-yl}(piperazin-1-yl)methanone], the IC50 was over 20 µM.

As for `O=C(c1ccc2cc(Oc3ccc(S(=O)(=O)C(F)(F)F)cc3)ccc2n1)N1CCNCC1` [Example 215, piperazin-1-yl(6-{4-[(trifluoromethyl)sulfonyl]phenoxy}quinolin-2-yl)methanone], the IC50 stood at 0.81 µM. In the case of `O=C(NC1CNC1)c1ccc2cc(Oc3ccc(C(F)(F)F)cn3)ccc2n1` [Example 216, N-(azetidin-3-yl)-6-{[5-(trifluoromethyl)pyridin-2-yl]oxy}quinoline-2-carboxamide], the half-inhibitory concentration (IC50) is 1.67 µM.

For the compound `O=C(c1ccc2cc(Oc3ccc(C(F)(F)F)cn3)ccc2n1)N1CC(c2cccnc2)C1` [Example 217, [3-(pyridin-3-yl)azetidin-1-yl](6-{[5-(trifluoromethyl)pyridin-2-yl]oxy}quinolin-2-yl)methanone], the half-inhibitory concentration (IC50) turned out to be 1.04 µM.

As for `CC(=O)N1CCN(C(=O)c2ccc3cc(Oc4ccc(C(F)(F)F)cn4)ccc3n2)CC1` [Example 218, 1-{4-[(6-{[5-(trifluoromethyl)pyridin-2-yl]oxy}quinolin-2-yl)carbonyl]piperazin-1-yl}ethanone], the IC50 is over 20 µM. Same read-out and setting: with `O=C(c1ccc2cc(Oc3ccc(C(F)(F)F)cn3)ccc2n1)N1CC=CC1` [Example 220, 2,5-dihydro-1H-pyrrol-1-yl(6-{[5-(trifluoromethyl)pyridin-2-yl]oxy}quinolin-2-yl)methanone] the figure was 2 µM; with `O=C(c1ccc2cc(Oc3ccc(C(F)(F)F)cn3)ccc2n1)N1CCc2ccncc2C1` [Example 222, 3,4-dihydro-2,7-naphthyridin-2(1H)-yl(6-{[5-(trifluoromethyl)pyridin-2-yl]oxy}quinolin-2-yl)methanone], 2.15 µM. Turning to `O=C(c1ccc2cc(Oc3ccc(C(F)(F)F)cn3)ccc2n1)N1C[C@@H](O)C[C@@H]1c1cc(F)ccc1F` [Example 223, [(2R,4S)-2-(2,5-difluorophenyl)-4-hydroxypyrrolidin-1-yl](6-{[5-(trifluoromethyl)pyridin-2-yl]oxy}quinolin-2-yl)methanone], the IC50 came to 2.79 µM. The same measure, in the same setting: as for `O=C(c1ccc2cc(Oc3ccc(C(F)(F)F)cn3)ccc2n1)N1CC[C@H](NS(=O)(=O)c2ccc(C(F)(F)F)cc2)[C@H]1c1ccccc1` [Example 225, N-{(2R,3S)-2-phenyl-1-[(6-{[5-(trifluoromethyl)pyridin-2-yl]oxy}quinolin-2-yl)carbonyl]pyrrolidin-3-yl}-4-(trifluoromethyl)benzenesulfonamide], the figure is over 20 µM; as for `CC(=O)c1ccc(Oc2ccc3nc(C(=O)N4CCNCC4)ccc3c2)nc1` [Example 226, 1-(6-{[2-(piperazin-1-ylcarbonyl)quinolin-6-yl]oxy}pyridin-3-yl)ethanone], over 20 µM; as for `O=C(c1ccc2cc(Oc3ccc(C(F)(F)F)cn3)ccc2n1)N1CCS(=O)(=O)CC1` [Example 227, (1,1-dioxidothiomorpholin-4-yl)(6-{[5-(trifluoromethyl)pyridin-2-yl]oxy}quinolin-2-yl)methanone], 2.94 µM.

As to `CC(C)(C)N1CCN(C(=O)c2ccc3cc(Oc4ccc(C(F)(F)F)cn4)ccc3n2)CC1` [Example 228, (4-tert-butylpiperazin-1-yl)(6-{[5-(trifluoromethyl)pyridin-2-yl]oxy}quinolin-2-yl)methanone], the IC50 came out at 1.15 µM. Turning to `O=C(c1ccc2cc(Oc3ccc(C(F)(F)F)cn3)ccc2n1)N1CC2(CCNCC2)C1` [Example 232, 2,7-diazaspiro[3.5]non-2-yl(6-{[5-(trifluoromethyl)pyridin-2-yl]oxy}quinolin-2-yl)methanone], the 50% inhibitory concentration (IC50) stood at 17.4 µM. Same read-out and setting: with `O=C(c1ccc2cc(Oc3ccc(C(F)(F)F)cn3)ccc2n1)N1CCCNC1` [Example 233, tetrahydropyrimidin-1(2H)-yl(6-{[5-(trifluoromethyl)pyridin-2-yl]oxy}quinolin-2-yl)methanone] the figure was 0.586 µM; with `O=C(c1ccc2cc(Oc3ccc(C(F)(F)F)cn3)ccc2n1)N1CCNC[C@H]1CO` [Example 234, [(2S)-2-(hydroxymethyl)piperazin-1-yl](6-{[5-(trifluoromethyl)pyridin-2-yl]oxy}quinolin-2-yl)methanone], 2.87 µM. Consider `CNS(=O)(=O)N1CCN(C(=O)c2ccc3cc(Oc4ccc(C(F)(F)F)cn4)ccc3n2)CC1` [Example 235, N-methyl-4-[(6-{[5-(trifluoromethyl)pyridin-2-yl]oxy}quinolin-2-yl)carbonyl]piperazine-1-sulfonamide], for which the concentration for half-maximal inhibition (IC50) was 2.36 µM. On the same count and under the same terms, as for `O=C(c1ccc2cc(Oc3ccc(C(F)(F)F)cn3)ccc2n1)N1CCCCCC1` [Example 238, azepan-1-yl(6-{[5-(trifluoromethyl)pyridin-2-yl]oxy}quinolin-2-yl)methanone], the figure is 1.54 µM; as for `CNC(=O)[C@@H]1CCCN1C(=O)c1ccc2cc(Oc3ccc(C(F)(F)F)cn3)ccc2n1` [Example 239, N-methyl-1-[(6-{[5-(trifluoromethyl)pyridin-2-yl]oxy}quinolin-2-yl)carbonyl]-L-prolinamide], over 20 µM; as for `O=C(c1ccc2cc(Oc3ccc(C(F)(F)F)cn3)ccc2n1)N1CCC2(CC1)OCCO2` [Example 240, 1,4-dioxa-8-azaspiro[4.5]dec-8-yl(6-{[5-(trifluoromethyl)pyridin-2-yl]oxy}quinolin-2-yl)methanone], 2.01 µM. Same read-out and setting: with `O=C(c1ccc2cc(Oc3ccc(C(F)(F)F)cn3)ccc2n1)N1C[C@H]2C[C@@H]1CN2` [Example 241, (1R,4R)-2,5-diazabicyclo[2.2.1]hept-2-yl(6-{[5-(trifluoromethyl)pyridin-2-yl]oxy}quinolin-2-yl)methanone] the figure was 1.85 µM. Still for that read-out and setting: as for `O=C(c1ccc2cc(Oc3ncccn3)ccc2n1)N1CCNCC1` [Example 242, piperazin-1-yl[6-(pyrimidin-2-yloxy)quinolin-2-yl]methanone], the figure is over 20 µM; as for `O=C(c1ccc2cc(Oc3ccc(C(F)(F)F)cn3)ccc2n1)N1CCNC[C@@H]1CO` [Example 243, [(2R)-2-(hydroxymethyl)piperazin-1-yl](6-{[5-(trifluoromethyl)pyridin-2-yl]oxy}quinolin-2-yl)methanone], over 20 µM.

The same test, now with this note: read-out: FRET-Membrane Potential Nav1.7 IC50.
As to `O=C1NCCN(C(=O)c2ccc3cc(Oc4ccc(C(F)(F)F)cn4)ccc3n2)C1c1ccccc1` (stereo not shown) [Example 208, 3-phenyl-4-[(6-{[5-(trifluoromethyl)pyridin-2-yl]oxy}quinolin-2-yl)carbonyl]piperazin-2-one], the IC50 turned out to be 3.05 µM.

For the compound `O=C(c1ccc2cc(Oc3ccc(C(F)(F)F)cn3)ccc2n1)N1CCSCC1` [Example 221, thiomorpholin-4-yl(6-{[5-(trifluoromethyl)pyridin-2-yl]oxy}quinolin-2-yl)methanone], the IC50 came to 2.79 µM. Consider `O=C(c1ccc2cc(Oc3ccc(C(F)(F)F)cn3)ccc2n1)N1CCCC1c1ccc(C(F)(F)F)cc1` (stereo not shown) [Example 224, {2-[4-(trifluoromethyl)phenyl]pyrrolidin-1-yl}(6-{[5-(trifluoromethyl)pyridin-2-yl]oxy}quinolin-2-yl)methanone], for which the half-maximal inhibitory concentration (IC50) is over 20 µM.

For the compound `O=C(N[C@@H]1CC[C@H]2CN(Cc3ccccc3)C[C@H]21)c1ccc2cc(Oc3ccc(C(F)(F)F)cn3)ccc2n1` [Example 230, N-[(3aS,4R,6aR)-2-benzyloctahydrocyclopenta[c]pyrrol-4-yl]-6-{[5-(trifluoromethyl)pyridin-2-yl]oxy}quinoline-2-carboxamide], the 50% inhibitory concentration (IC50) is 0.259 µM. Same read-out and setting: as for `CC(C)N1CCN(C(=O)c2ccc3cc(Oc4ccc(C(F)(F)F)cn4)ccc3n2)CC1` [Example 231, (4-isopropylpiperazin-1-yl)(6-{[5-(trifluoromethyl)pyridin-2-yl]oxy}quinolin-2-yl)methanone], the figure is 0.783 µM. Same read-out and setting: with `CCNS(=O)(=O)N1CCN(C(=O)c2ccc3cc(Oc4ccc(C(F)(F)F)cn4)ccc3n2)CC1` [Example 236, N-ethyl-4-[(6-{[5-(trifluoromethyl)pyridin-2-yl]oxy}quinolin-2-yl)carbonyl]piperazine-1-sulfonamide] the figure was 1.01 µM; with `O=C(c1ccc2cc(Oc3ccc(C(F)(F)F)cn3)ccc2n1)N1CCC[C@H]1CO` [Example 237, [(2S)-2-(hydroxymethyl)pyrrolidin-1-yl](6-{[5-(trifluoromethyl)pyridin-2-yl]oxy}quinolin-2-yl)methanone], 3.07 µM.

Usually IC50 stands for the concentration at which inhibition is half-maximal.
